Measurements from ChEMBL document CHEMBL1146120 (J Med Chem, 2006).
Active and inactive are the calls of the source. No cut-off for these calls is given here.

Experiments:
[1] = tested on: Rattus norvegicus; assay: Antihypertrophic activity in Wistar rat at 21.3 mg/kg, ip; format: functional, organism-based; parameters: dose 21.3 mg/kg
[2] = molecular target: T1, Type-1 angiotensin II receptor (Homo sapiens) (UniProt P30556); assay: Antagonist activity against AT1 receptor after 20 min preincubation; format: functional
T1 sequence (whole entry): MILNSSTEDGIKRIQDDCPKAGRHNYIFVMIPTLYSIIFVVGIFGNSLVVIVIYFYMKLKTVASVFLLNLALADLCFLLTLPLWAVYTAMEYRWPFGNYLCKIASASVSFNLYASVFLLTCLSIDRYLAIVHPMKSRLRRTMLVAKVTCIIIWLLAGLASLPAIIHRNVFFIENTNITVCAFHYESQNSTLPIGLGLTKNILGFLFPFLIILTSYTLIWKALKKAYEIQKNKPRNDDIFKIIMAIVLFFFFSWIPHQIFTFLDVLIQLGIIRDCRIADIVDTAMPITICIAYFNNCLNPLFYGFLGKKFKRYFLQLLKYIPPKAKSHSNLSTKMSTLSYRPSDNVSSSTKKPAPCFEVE

[3] = organism: Rattus norvegicus; assay: Inhibition of NO-mediated vasorelaxation of KCl-induced contractile tone in Wistar rat thoracic aortic ring; format: functional; settings: Aorta
[4] = organism: Rattus norvegicus; assay: Activity against NO-mediated vasorelaxation of KCl-induced contractile tone in Wistar rat thoracic aortic ring at 1 uM; format: functional
[5] = organism: Rattus norvegicus; assay: Activity against NO-mediated vasorelaxation of KCl-induced contractile tone in Wistar rat thoracic aortic ring; format: functional; settings: Aorta
[6] = molecular target: T1, Type-1 angiotensin II receptor (Homo sapiens); assay: Antagonist activity against AT1 receptor after 60 min preincubation; format: functional
[7] = tested on: Plasma; assay: Inhibition of ADP-mediated platelet aggregation in Wistar rat platelet-rich plasma at 100 uM; format: functional; parameters: scale not given: the % may be the effect or the level left

Structure (SMILES)	Kb [2]	IC50 [3]	Kb [6]	Activity [1]	Activity ([4]; Aorta)	Emax [5]	Activity [4]	Activity [7]
C[C@H](CS)C(=O)N1CCC[C@H]1C(=O)O				Active				
CCCCc1nc(Cl)c(COC(=O)c2c(C)ccc(CO[N+](=O)[O-])c2C)n1Cc1ccc(-c2ccccc2-c2nn[nH]n2)cc1	inactive	32400 nM				100%	<25%	
CCCCc1nc(Cl)c(CO[N+](=O)[O-])n1Cc1ccc(-c2ccccc2-c2nn[nH]n2)cc1 [LOSARTAN NITROOXY ESTER]	inactive	15100 nM	3 nM			100%	<25%	
CCCCc1nc(Cl)c(COC(=O)c2ccc(C(C)O[N+](=O)[O-])cc2)n1Cc1ccc(-c2ccccc2-c2nn[nH]n2)cc1 (stereo not given)	inactive	7760 nM	8 nM			100%	<25%	
CCCCc1nc(Cl)c(COC(=O)c2cccc(CO[N+](=O)[O-])n2)n1Cc1ccc(-c2ccccc2-c2nn[nH]n2)cc1	8 nM	12300 nM				100%	<25%	
CCCCc1nc(Cl)c(COC(=O)c2cccc(C(C)O[N+](=O)[O-])c2)n1Cc1ccc(-c2ccccc2-c2nn[nH]n2)cc1 (stereo not given)	inactive		12 nM			47%	<25%	
CCCCc1nc(Cl)c(CO)n1Cc1ccc(-c2ccccc2-c2nnn[nH]2)cc1 [LOSARTAN]				Active				50%

Continued by falling IC50 [3], values first:

Kb [2]	IC50 [3]	Kb [6]	Structure (SMILES)	Activity [1]	Activity ([4]; Aorta)	Emax [5]	Activity [4]	Activity [7]
	6030 nM		CCCCc1nc(Cl)c(C(=O)Oc2cccc(CO[N+](=O)[O-])c2)n1Cc1ccc(-c2ccccc2-c2nn[nH]n2)cc1			100%	<25%	
16 nM	851 nM		CCCCc1nc(Cl)c(COC(=O)CCCCO[N+](=O)[O-])n1Cc1ccc(-c2ccccc2-c2nn[nH]n2)cc1			100%		
inactive	275 nM		CCCCc1nc(Cl)c(C(=O)Oc2ccc(CO[N+](=O)[O-])cc2)n1Cc1ccc(-c2ccccc2-c2nn[nH]n2)cc1		Active	100%		
	275 nM	10 nM	CCCCc1nc(Cl)c(COC(=O)c2cccc(CO[N+](=O)[O-])c2)n1Cc1ccc(-c2ccccc2-c2nn[nH]n2)cc1	Active	Active	100%		41%
19 nM	66.1 nM		CCCCc1nc(Cl)c(COC(=O)c2ccc(CO[N+](=O)[O-])cc2)n1Cc1ccc(-c2ccccc2-c2nn[nH]n2)cc1		Active	100%		
